We go through one molecule from patent US20230174538A1, “Tricyclic heterocycles” (Merck Patent GmbH, priority 2020, published 2023).

One assay concerns SW620 Yap KO cells. Briefly: Viability assay in SW620 Yap KO (Yap independent) cells, CyQUANT. Type of assay: cell-based. To be noted: Homo sapiens, SW-620. On the procedure:
Viability Assay in NCI-H226 (Yap-Dependent) and SW620 Yap KO (Yap Independent) Cells
The ability of YAP-TEAD inhibitors to inhibit tumor cell growth was evaluated using two different cell lines: NCI-H226, which is a YAP dependent cell line, and SW620 cells, where YAP and TAZ were knocked out using CRISPR to generate a YAP independent cell line.
For the assay, cells were treated in duplicates with the test compounds in a 10-point dose, 1:3 dilution steps, with the top concentration starting at 30 μM (final concentration in assay). After a 96 hour incubation at 37° C., 95% rH, and 5% CO2, a cell-permeant DNA-binding dye that stains only healthy cells (CyQUANT®, Promega) was added to the cells, allowing the quantification of cell viability.
Cell Media: The NCI-H226 cells were cultured in the following media: RPMI 1640, +10% FBS, +1× GlutaMAX, +10 mM HEPES, +0.5% Pen/Strep. The SW620-KO cells were cultured in the following media: DMEM/F-12, +10% FBS, +1× GlutaMAX, +10 mM HEPES, +0.5% Pen/Strep.
Reagents: The reagents used are listed below:
Cell culture: The cells were examined using an inverted microscope to check for health, cell density, etc. To dissociate adherent cells, the monolayer of cells was washed once with pre-warmed PBS. After removing the PBS, 3 ml pre-warmed Accutase was added to a F75 flask, dispersed evenly and the flask was allowed to sit in incubator for ˜4-5 minutes.
When a single cell suspension was obtained, 7 ml of prewarmed growth media was added and resuspended with the cells. The cell suspension was transferred to a sterile 15 ml conical centrifuge tube, and spun for 5 min at 300×g, RT. The supernatant was discarded and the pellet was resuspended in 10 ml of pre-warmed growth media.
The total cell count was determined, and 20 μl of the desired cell number was added to each well of a 384 well plate using a Multidrop Combi. The plates were then incubated for 24 hours at 37° C., 95% rH, and 5% CO2.
Compound treatment: 24 hours after seeding, the cells were treated with compounds.
A 1:333 dilution of compounds, diluted in DMSO, was made to get a final concentration of 0.3% DMSO per well. To transfer the compounds to the assay plate, 120 nl was shot from Labcyte low dead volume plates to the cell plates containing 20 μl media/well with the ECHO 555 liquid handling system.
After treatment, the cells were fed with 20 μl fresh pre-warmed assay media using a Multidrop combi.
The assay plates were then incubated for 96 h at 37° C., 95% rH, and 5% CO2.
96 h after treatment 30 μl of CyQuant® reagent was added to the assay plates using a Multidrop combi in the dark. The plates were then incubated for 1 hour at 37° C., 95% rH and 5% CO2. Thereafter, the assay plates were removed from the incubator and allowed to equilibrate to RT for 30 min in the dark without lid. Finally, they were measured using an EnVision microplate reader with a FITC bottom read program.

Assay [1] relates to NCI-H226 human mesothelioma tumor cells. The experiment in a line: NCI-H226 in vivo efficacy study (subcutaneous xenograft). To be noted: H2d Rag2 female mice, NCI-H226 tumors, po qd for 29 days. On the procedure: NCI-H226 In Vivo Efficacy Study
7-9-week-old H2d Rag2 female mice (own breeding, Taconic-Denmark) were inoculated subcutaneously with 5×10^6 NCI-H226 human mesothelioma tumor cells in the right flank. Tumor growth and body weight was measured twice weekly using caliper. Tumor volume was calculated using the formula TV=L×W×W/2.
When tumor volume reached approximately 75-150 mm^3, animals were randomized (Day 0) into treatment groups (n=9-10/group) and treated perorally (po) once daily (qd) for 29 days with either vehicle (20% hydroxypropyl β-cyclodextrin in 50 mM PBS pH 7.4) or Compound no. 2. Compound no. 2 was tested at dosing levels of 1, 3, 10, 30, and 100 mg/kg, respectively. Results are depicted in FIG. 1 (tumor growth over time for vehicle group and each dosage group) and FIG. 2 (final tumor volume of vehicle group and each dosage group).
Statistical analysis of tumor volumes between treatment groups was done using repeated measures analysis of covariance (RM-ANCOVA) in a linear mixed effects model followed by least-squares means pairwise comparisons.
The animal experiment was performed under regulation of the German animal welfare act and in accordance with the EU laboratory animal directive for the area of animal experiments.

The test system of the next assay is YAP-TEAD interaction. The experiment in a line: SK-HEP-1 reporter assay (8xTEAD responsive elements driving NanoLuc luciferase). Type of assay: cell-based. Particulars: Homo sapiens, SK-HEP1, SK-HEP-1 reporter assay. The essentials:
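Luminescence after NanoGlo addition gave reporter activity, and IC50 values came from duplicate 10-point curves (top final concentration 30 μM, 0.3% DMSO). The cells were SK-HEP-1 with a stably integrated 8×TEAD-driven NanoLuc gene, exposed to compound for 24 h at 37 °C.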
(In a reporter assay the amount or activity of a reporter protein is the signal.)

Broadly, the IC50 is the concentration that inhibits the measured activity by half. Regarding `Cn1cc2c3cc(C(=O)O)ccc3n(-c3ccc(C(F)(F)F)cc3)c2n1` [Example 2, 2-methyl-8-[4-(trifluoromethyl)phenyl]-2H,8H-pyrazolo[3,4-b]indole-5-carboxylic acid], the IC50 was above 30000 nM with SW620 Yap KO cells and 1 to 10 nM in the assay on YAP-TEAD interaction. In assay [1], the “dosing levels showing maximal tumor growth inhibition” value is given as above 10 mg/kg. The “tumor growth inhibition compared to vehicle treated group” value in assay [1] (1, 3, 10, 30 and 100 mg/kg, all tested dosing levels, p-value <0.001) is on record as “Significant tumor growth inhibition”.
